# Where a SMILES comes first, the peptide text is derived from it.
# Assay: physchem
# Details: not given
row,Compound,pKa
1,CC(Cc1ccc(O)c(O)c1)(NN)C(=O)O (stereo not given),3.5
2,CCCCC1CCN(CCCC(=O)c2ccccc2C)CC1,7.85
3,CN/C(=C/[N+](=O)[O-])NCCSCc1ccc(CN(C)C)o1,9.6
4,CC1CCN(CC(=O)Nc2nc(-c3ccccc3)cs2)CC1,10.5
5,NC(=O)C1CCN(CC(=O)Nc2nc(-c3ccccc3)cs2)CC1,10.2
6,Cc1ccc(C)c(N2CCN(C3CCCC(C)C3)CC2)c1 (stereo not given),7.16
7,O=C(O)c1ccccc1C(=O)Nc1nc(-c2ccccc2)cs1,3.4
8,COc1ccc(C(=O)CCC(=O)O)cc1,4.7
9,CC1CN(c2c(F)c(N)c3c(=O)c(C(=O)O)cn(C4CC4)c3c2F)CC(C)N1 (stereo not given),6.1
10,Cc1cnc(NC(=O)CN2CCCCC2)s1,10.6
11,O=C(O)c1ccccc1-c1ncc(-c2ccccc2)o1,2.9
12,O=C(CN1CCCCC1)Nc1nc(-c2ccc(Cl)cc2)cs1,10.4
13,CCOC(=O)c1csc(NC(=O)CN2CCCCC2)n1,9.9
14,Cc1nc(NC(=O)CCCC(=O)O)sc1C,2.5
15,O=C(O)CSCC(=O)Nc1nc(-c2ccccc2)c(-c2ccccc2)s1,4
16,O=C(O)c1cc(-c2ccccc2)nc(O)n1,2.5
17,FC(F)(F)c1cccc(N2CCN(C3C4CC5CC(C4)CC3C5)CC2)c1 (stereo not given),7.45
18,Nc1cc(-c2ccccc2)nc2ccc(Br)cc12,7.4
19,Nc1cc(-c2ccccc2)nc2ccc(Cl)cc12,7.4
20,NCc1cc(-c2ccccc2)nc2ccccc12,8.37
21,O=C(CN1CCCCC1)Nc1ncc(Cc2cccc3ccccc23)s1,10.5
22,c1cnc(N2CCN(C3CC4CCC3C4)CC2)nc1 (stereo not given),8
23,CC[C@]12CCCN3CCc4c(n(c5ccccc45)[C@@](O)(C(=O)OC)C1)C32 (stereo not given in full),7.9
24,Cc1c(Cl)cccc1-n1ncc(C(=O)Nc2nccs2)c1C1CCNCC1,9.4
25,Cc1ccc(C)c(N2CCN(C3C4CC5CC(C4)CC3C5)CC2)c1 (stereo not given),7.6
26,Cc1ccc(C)c(N2CCN(C3CCC(C)C3)CC2)c1 (stereo not given),7.5
27,Cc1ccc(C)c(N2CCN(C3CCCCCC3)CC2)c1,7.54

row,Compound,pKa
1,CC1CCC(N2CCN(c3ccccc3F)CC2)CC1 (stereo not given),7.4
2,Cc1ccc(-n2ncc(C(=O)Nc3nccs3)c2C2CCNCC2)cc1C,9.5
3,Cc1cccc(-n2ncc(C(=O)Nc3nccs3)c2C2CCNCC2)c1,9.5
4,COc1ccc2nc(NC(=O)CN3CCC(C)CC3)sc2c1,10
5,CC1CCN(CC(=O)Nc2ncc(Cc3cccc4ccccc34)s2)CC1,10.6
6,CN(C)CCNC(=O)c1cc(-c2ccccc2)nc2ccccc12,8.3
7,COc1cc(CN2CCC3(C=Cc4ccccc43)CC2)cc(OC)c1OC,8.4
8,COc1ccc2nc(-c3ccccc3)cc(N)c2c1,8.7
9,COc1ccc2nc(NC(=O)CN3CCCCC3)sc2c1,10
10,CC1OC(O[C@H]2/C=C/C=C/C=C/C=C/C=C/C=C/C=C/[C@H](C)[C@@H](O)[C@@H](C)[C@H](C)OC(=O)C[C@H](O)C[C@H](O)CC[C@@H](O)[C@H](O)C[C@H](O)C[C@]3(O)C[C@H](O)[C@@H](C(=O)O)[C@H](C2)O3)C(O)C(N)C1O (stereo not given in full),3.1
11,O=C1NCN(c2ccccc2)C12CCN(CCCC(c1ccc(F)cc1)c1ccc(F)cc1)CC2,7.7
12,O=C(N[C@H]1CCCC[C@H]1C(=O)O)c1ccccc1,3.3
13,Nc1c2c(nc3ccccc13)-c1ccccc1CC2,8.1
14,C=CC1=C(C(=O)O)N2C(=O)[C@@H](NC(=O)/C(=N\O)c3csc(N)n3)[C@H]2SC1,3.35
15,Nc1ccc(C(=O)O)c(O)c1 [AMINOSALICYLIC ACID],3.4
16,CCN1CCCC1CNC(=O)c1cc(S(=O)(=O)CC)c(N)cc1OC (stereo not given) [AMISULPRIDE],9.3
17,CN(C)CCC=C1c2ccccc2CCc2ccccc21 [AMITRIPTYLINE],8.2
18,CN(C)CCC(c1ccc(Br)cc1)c1ccccn1 (stereo not given) [BROMPHENIRAMINE],10.1
19,CCCCNc1cc(C(=O)O)cc(S(N)(=O)=O)c1Oc1ccccc1 [BUMETANIDE],3.6
20,Cn1nnnc1SCC1=C(C(=O)O)N2C(=O)[C@@H](NC(=O)[C@H](O)c3ccccc3)[C@H]2SC1 [CEFAMANDOLE],3.4
21,CCN(CC)CCOC(=O)c1ccc(N)cc1Cl [CHLOROPROCAINE],9
22,CN(C)CCCN1c2ccccc2CCc2ccc(Cl)cc21 [CLOMIPRAMINE],9.1
23,CN1CCN(C2=Nc3cc(Cl)ccc3Nc3ccccc32)CC1 [CLOZAPINE],7.8
24,CN(C)CCC=C1c2ccccc2C=Cc2ccccc21 [CYCLOBENZAPRINE],8.24
25,O=C(CCCN1CC=C(n2c(=O)[nH]c3ccccc32)CC1)c1ccc(F)cc1 [DROPERIDOL],7.6
26,CCCCOc1ccc(C(=O)CCN2CCCCC2)cc1 [DYCLONINE],9
27,CN(C)CC/C=C1\c2ccccc2COc2ccccc21 [E-DOXEPIN],8.7

row,Compound,pKa
1,C=C(CC)C(=O)c1ccc(OCC(=O)O)c(Cl)c1Cl [ETHACRYNIC ACID],3.1
2,CC(NCCC(c1ccccc1)c1ccccc1)c1ccccc1 (stereo not given) [FENDILINE],9.3
3,CN1CCN(c2c(F)cc3c(=O)c(C(=O)O)cn(CCF)c3c2F)CC1 [FLEROXACIN],5.5
4,CC(C(=O)O)c1ccc(-c2ccccc2)c(F)c1 (stereo not given) [FLURBIPROFEN],4.3
5,COc1c(N2CCNC(C)C2)c(F)cc2c(=O)c(C(=O)O)cn(C3CC3)c12 (stereo not given) [GATIFLOXACIN],9.4
6,O=C(CCCN1CCC(O)(c2ccc(Cl)cc2)CC1)c1ccc(F)cc1 [HALOPERIDOL],8.5
7,CCn1cc(C(=O)O)c(=O)c2cc(F)c(N3CCNC(C)C3)c(F)c21 (stereo not given) [LOMEFLOXACIN],5.74
8,CN1CCCCC1CCN1c2ccccc2Sc2ccc([S+](C)[O-])cc21 (stereo not given) [MESORIDAZINE],9.5
9,CC(CN(C)C)CN1c2ccccc2Sc2ccccc21 (stereo not given) [METHYLPROMAZINE],8.5
10,Clc1ccc2c(c1)N=C(N1CCNCC1)c1ccccc1N2 [N-DESMETHYLCLOZAPINE],8.9
11,O=C(O)c1cccnc1 [NIACIN],2.4
12,CCn1cc(C(=O)O)c(=O)c2cc(F)c(N3CCNCC3)cc21 [NORFLOXACIN],6.05
13,O=C1CCCN1CC#CCN1CCCC1 [OXOTREMORINE],8.4
14,O=c1[nH]c2ccccc2n1C1CCN(CCCC(c2ccc(F)cc2)c2ccc(F)cc2)CC1 [PIMOZIDE],7.45
15,CC(CN1c2ccccc2Sc2ccccc21)N(C)C (stereo not given) [PROMETHAZINE],8.7
16,CCOc1cc(CC(=O)N[C@@H](CC(C)C)c2ccccc2N2CCCCC2)ccc1C(=O)O [REPAGLINIDE],3.75
17,CN[C@H]1CC[C@@H](c2ccc(Cl)c(Cl)c2)c2ccccc21 [SERTRALINE],8
18,CC(C(=O)O)c1ccc(C(=O)c2cccs2)cc1 (stereo not given) [SUPROFEN],4.3
19,CC/C(=C(\c1ccccc1)c1ccc(OCCN(C)C)cc1)c1ccccc1 [TAMOXIFEN],10
20,CN(C/C=C/C#CC(C)(C)C)Cc1cccc2ccccc12 [TERBINAFINE],7.12
21,CC(C)(C)c1ccc(C(O)CCCN2CCC(C(O)(c3ccccc3)c3ccccc3)CC2)cc1 (stereo not given) [TERFENADINE],8.5
22,CCCCNc1ccc(C(=O)OCCN(C)C)cc1 [TETRACAINE],8.6
23,CC(CN(C)C)CN1c2ccccc2CCc2ccccc21 (stereo not given) [TRIMIPRAMINE],8.5
24,Cc1ccc(/C(=C\CN2CCCC2)c2ccccn2)cc1 [TRIPROLIDINE],9.25
25,CCOC(=O)C1=C[C@]2(CC)CCCN3CCc4c(n1c1ccccc41)[C@@H]32 [VINPOCETINE],7.1

# Assay: physchem
# Details: not given
# Remark: another data set of the same source
row,Compound,pKa
1,CN/C(=C/[N+](=O)[O-])NCCSCc1ccc(CN(C)C)o1,8.47
2,CC(NC(C)(C)C)C(=O)c1cccc(Cl)c1 (stereo not given) [BUPROPION],8.35

# Same assay, conditions: pKa
row,Compound,pKa
1,Nc1ccc(C(=O)O)c(O)c1 [AMINOSALICYLIC ACID],3.62
2,CCN1CCCC1CNC(=O)c1cc(S(=O)(=O)CC)c(N)cc1OC (stereo not given) [AMISULPRIDE],9.37
3,CCCCNc1cc(C(=O)O)cc(S(N)(=O)=O)c1Oc1ccccc1 [BUMETANIDE],3.83
4,CN(C)CC/C=C1\c2ccccc2COc2ccccc21 [E-DOXEPIN],9
5,CN1CCN(c2c(F)cc3c(=O)c(C(=O)O)cn(CCF)c3c2F)CC1 [FLEROXACIN],8.8
6,COc1c(N2CCNC(C)C2)c(F)cc2c(=O)c(C(=O)O)cn(C3CC3)c12 (stereo not given) [GATIFLOXACIN],8.74

# Assay: physchem
# Details: not given
# Remark: another data set of the same source
row,Compound,pKa
1,CC(Cc1ccc(C(C)(C)C)cc1)CN1C[C@@H](C)O[C@@H](C)C1 (stereo not given in full) [FENPROPIMORPH],7.34
2,CCC(=O)O[C@](Cc1ccccc1)(c1ccccc1)[C@H](C)CN(C)C [PROPOXYPHENE],9.06
3,CCN(C)C(=O)Oc1cccc([C@H](C)N(C)C)c1 [RIVASTIGMINE],8.8

# Same assay, conditions: pKa
row,Compound,pKa
1,Cc1cc(=O)oc2cc(O[C@@H]3O[C@H](CO)[C@@H](O)[C@H](O)[C@H]3O)ccc12,2.82
2,CN(C)CCO[C@]1(c2ccccc2)C[C@H]2CC[C@]1(C)C2(C)C,9.61
3,CO[C@@H]1[C@@H](O[C@@H]2O[C@H](C)[C@@H](O)[C@H](N(C)C)[C@H]2O)[C@@H](CC=O)C[C@@H](C)C(=O)/C=C/[C@@H]2O[C@H]2C[C@@H](C)OC(=O)C[C@H]1OC(C)=O,8.44
4,N[C@@H](Cc1c[nH]c2ccccc12)C(=O)N[C@@H](Cc1ccccc1)C(=O)O (H-Trp-Phe-OH),3.18
5,N[C@@H](Cc1c[nH]c2ccccc12)C(=O)N[C@@H](Cc1c[nH]c2ccccc12)C(=O)O (H-Trp-Trp-OH),3.38
6,CCCCC[C@H](O)/C=C/[C@H]1[C@H](O)CC(=O)[C@@H]1CCCCCCC(=O)O [ALPROSTADIL],4.87
7,N[C@@H](CC(=O)O)C(=O)O [ASPARTIC ACID],9.67
8,CCN(CC)C(=O)Nc1ccc(OCC(O)CNC(C)(C)C)c(C(C)=O)c1 (stereo not given) [CELIPROLOL],9.66
9,CCCCC[C@H](O)/C=C/[C@H]1[C@H](O)CC(=O)[C@@H]1C/C=C\CCCC(=O)O [DINOPROSTONE],4.77
10,CNC[C@H](O)[C@@H](O)[C@H](O)[C@H](O)CO [MEGLUMINE],9.6
11,N[C@@H](Cc1ccccc1)C(=O)O [PHENYLALANINE],9.08
12,CNC(=C[N+](=O)[O-])NCCSCc1ccc(CN(C)C)o1 [RANITIDINE],8.31
13,CC[C@H]1OC(=O)C[C@@H](O)[C@H](C)[C@@H](O[C@@H]2O[C@H](C)C[C@H](N(C)C)[C@H]2O)[C@@H](CC=O)C[C@@H](C)C(=O)/C=C/C(C)=C/[C@@H]1C [REPROMICIN],8.83
14,CC[C@H]1OC(=O)[C@H](C)[C@@H](O[C@H]2C[C@@](C)(OC)[C@@H](O)[C@H](C)O2)[C@H](C)[C@@H](O[C@@H]2O[C@H](C)C[C@H](N(C)C)[C@H]2O)[C@](C)(O)C[C@@H](C)/C(=N\OCOCCOC)[C@H](C)[C@@H](O)[C@]1(C)O [ROXITHROMYCIN],9.27

# Assay: physchem
# Details: not given
# Remark: another data set of the same source
row,Compound,pKa
1,CN(C)[C@@H]1C(=O)C(C(N)=O)=C(O)[C@@]2(O)C(O)=C3C(=O)c4c(O)cccc4[C@@](C)(O)C3[C@H](O)C12 (stereo not given in full),7.32
